Among the data in patent US20200179428A1, “CYCLIC PHOSPHATE SUBSTITUTED NUCLEOSIDE DERIVATIVES AND METHODS OF USE THEREOF FOR THE TREATMENT OF VIRAL DISEASES” (priority 2016, published 2020) are EC50 and CC50 values, retold here.

The subject of the first data set is replicon cells (1b-Con1). The experiment in a line: Replicon activity assay (replicon RNA level by real-time RT-PCR, Taqman). It counts as cell-based. The following applies: HCV replicon genotype 1b; read-out: EC50 (1b) Range. The gist of the method: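 HCV 1b-Con1 replicon cells treated 3 days with 10-point twofold serial dilutions in triplicate (0.5% DMSO, 10% FBS); replicon RNA quantified by Taqman real-time RT-PCR normalised to GAPDH, EC50 derived. Cytotoxicity by MTS read-out at day 3 on identically treated cells.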
For `CC(C)OC(=O)C(C)CCOP1(=O)OC[C@H]2O[C@@H](n3ccc(=O)[nH]c3=O)[C@](C)(Cl)[C@@H]2O1` (stereo partly shown) [Compound 39B], the EC50 was at most 0.25 µM.
For the compound `CC(CCOP1(=O)OC[C@H]2O[C@@H](n3ccc(=O)[nH]c3=O)[C@](C)(N)[C@@H]2O1)C(=O)OC1CCCC1` (single isomer, unassigned) [Compound 14B], the EC50 is over 10 µM.
For `C#C[C@@]1(O)[C@@H]2OP(=O)(OCC[C@@H](C)C(=O)OC(C)C)OC[C@H]2O[C@H]1n1ccc(=O)[nH]c1=O` (single isomer, unassigned) [Compound 7B1], the EC50 lay within 0.25 to 1 µM.
Turning to `CC(C)OC(=O)C(C)CCOP1(=O)OC[C@H]2O[C@@H](n3cnc4c(N)ncnc43)[C@](C)(Cl)[C@@H]2O1` (single isomer, unassigned) [Compound 35B2], the EC50 is at most 0.25 µM.
For the compound `C#C[C@@]1(O)[C@@H]2OP(=O)(OCC[C@H](C)C(=O)OC3CCCC3)OC[C@H]2O[C@H]1n1ccc(=O)[nH]c1=O` (single isomer, unassigned) [Compound 8B2], the EC50 is 0.25 to 1 µM.
Same read-out and setting: for `C#C[C@]1(C)[C@@H]2OP(=O)(OCCC(C(=O)OC(C)C)C(=O)OC(C)C)OC[C@H]2O[C@H]1n1ccc(=O)[nH]c1=O` (single isomer, unassigned) [Compound 36B] the value was 1 to 10 µM; for `CC(C)OC(=O)[C@@H](C)CCOP1(=O)OC[C@H]2O[C@@H](n3ccc(=O)[nH]c3=O)[C@](C)(Cl)[C@@H]2O1` (single isomer, unassigned) [Compound 39B2], 0.25 to 1 µM; for `C#C[C@@]1(O)[C@@H]2OP(=O)(OCCC(C)C(=O)OC3CCCC3)OC[C@H]2O[C@H]1n1ccc(=O)[nH]c1=O` (single isomer, unassigned) [Compound 8A2], at most 0.25 µM.
Consider `C#C[C@]1(C)[C@@H]2OP(=O)(OCC(C)CC(=O)OC(C)C)OC[C@H]2O[C@H]1n1ccc(=O)[nH]c1=O` (single isomer, unassigned) [Compound 6B2], for which the EC50 was 1 to 10 µM.
On to `CC(CCOP1(=O)OC[C@H]2O[C@@H](n3ccc(=O)[nH]c3=O)[C@](C)(N)[C@@H]2O1)C(=O)OC1CCCC1` (single isomer, unassigned) [Compound 14B2], for which the EC50 is 1 to 10 µM.
On the same count and under the same terms, to `CC(C)OC(=O)C(C)CCOP1(=O)OC[C@H]2O[C@@H](n3ccc(=O)[nH]c3=O)[C@](C)(N)[C@@H]2O1` (single isomer, unassigned) [Compound 10B2] belongs over 10 µM; to `C#C[C@@]1(O)[C@@H]2OP(=O)(OCCC(C)C(=O)OC3CCCC3)OC[C@H]2O[C@H]1n1ccc(=O)[nH]c1=O` (single isomer, unassigned) [Compound 8B1], at most 0.25 µM.
As for `C#C[C@]1(C)[C@@H]2O[P@@](=O)(OCC(CC(=O)OC(C)C)N(C)C(=O)OC(C)(C)C)OC[C@H]2O[C@H]1n1ccc(=O)[nH]c1=O` (stereo partly shown) [Compound 74A2], the concentration giving a half-maximal response (EC50) was over 10 µM.
Consider `CC(C)OC(=O)[C@@H](C)CCOP1(=O)OC[C@H]2O[C@@H](n3cnc4c(N)ncnc43)[C@](C)(Cl)[C@@H]2O1` (single isomer, unassigned) [Compound 35B1], for which the EC50 was at most 0.25 µM.
As for `CC(C)OC(=O)C(C)CCOP1(=O)OC[C@H]2O[C@@H](n3ccc(=O)[nH]c3=O)[C@](C)(N)[C@@H]2O1` (single isomer, unassigned) [Compound 10B1], the EC50 is over 10 µM.
Consider `C#C[C@@]1(O)[C@@H]2OP(=O)(OCCC(C)C(=O)OC(C)C)OC[C@H]2O[C@H]1n1ccc(=O)[nH]c1=O` (stereo partly shown) [Compound 7B], for which the 50% effective concentration (EC50) was at most 0.25 µM.
In the case of `CC(C)OC(=O)C(C)CCOP1(=O)OC[C@H]2O[C@@H](n3cnc4c(N)ncnc43)[C@](C)(Cl)[C@@H]2O1` (single isomer, unassigned) [Compound 35B], the EC50 was at most 0.25 µM.

The test system of a further data set is replicon cells. As to the kind of experiment: Cytotoxicity MTS assay (CellTiter 96 Aqueous One Solution) in replicon cells. Format: cell-based. The following applies: EDU; read-out: CC50 (EDU) Range. In general terms: Tetrazolium assays rely on reduction of a dye to a coloured formazan, in cell work by metabolically active cells.
As for `CC(C)OC(=O)C(C)CCOP1(=O)OC[C@H]2O[C@@H](n3ccc(=O)[nH]c3=O)[C@](C)(Cl)[C@@H]2O1` (stereo partly shown) [Compound 39B], the CC50 was over 50 µM.
With `CC(CCOP1(=O)OC[C@H]2O[C@@H](n3ccc(=O)[nH]c3=O)[C@](C)(N)[C@@H]2O1)C(=O)OC1CCCC1` (single isomer, unassigned) [Compound 14B], the 50% cytotoxic concentration (CC50) was over 50 µM.
For the compound `C#C[C@@]1(O)[C@@H]2OP(=O)(OCC[C@@H](C)C(=O)OC(C)C)OC[C@H]2O[C@H]1n1ccc(=O)[nH]c1=O` (single isomer, unassigned) [Compound 7B1], the CC50 is over 50 µM.
In the case of `CC(C)OC(=O)C(C)CCOP1(=O)OC[C@H]2O[C@@H](n3cnc4c(N)ncnc43)[C@](C)(Cl)[C@@H]2O1` (single isomer, unassigned) [Compound 35B2], the CC50 is over 50 µM.
Consider `C#C[C@@]1(O)[C@@H]2OP(=O)(OCC[C@H](C)C(=O)OC3CCCC3)OC[C@H]2O[C@H]1n1ccc(=O)[nH]c1=O` (single isomer, unassigned) [Compound 8B2], for which the CC50 was over 50 µM.
Regarding `C#C[C@]1(C)[C@@H]2OP(=O)(OCCC(C(=O)OC(C)C)C(=O)OC(C)C)OC[C@H]2O[C@H]1n1ccc(=O)[nH]c1=O` (single isomer, unassigned) [Compound 36B], the CC50 is over 50 µM.
`CC(C)OC(=O)[C@@H](C)CCOP1(=O)OC[C@H]2O[C@@H](n3ccc(=O)[nH]c3=O)[C@](C)(Cl)[C@@H]2O1` (single isomer, unassigned) [Compound 39B2]: the half-maximal cytotoxic concentration (CC50) is over 50 µM.
In the case of `C#C[C@@]1(O)[C@@H]2OP(=O)(OCCC(C)C(=O)OC3CCCC3)OC[C@H]2O[C@H]1n1ccc(=O)[nH]c1=O` (single isomer, unassigned) [Compound 8A2], the CC50 is over 50 µM.
With `C#C[C@]1(C)[C@@H]2OP(=O)(OCC(C)CC(=O)OC(C)C)OC[C@H]2O[C@H]1n1ccc(=O)[nH]c1=O` (single isomer, unassigned) [Compound 6B2], the CC50 was over 50 µM.
Take `CC(CCOP1(=O)OC[C@H]2O[C@@H](n3ccc(=O)[nH]c3=O)[C@](C)(N)[C@@H]2O1)C(=O)OC1CCCC1` (single isomer, unassigned) [Compound 14B2]: the CC50 is over 50 µM.
In the case of `CC(C)OC(=O)C(C)CCOP1(=O)OC[C@H]2O[C@@H](n3ccc(=O)[nH]c3=O)[C@](C)(N)[C@@H]2O1` (single isomer, unassigned) [Compound 10B2], the CC50 is over 50 µM.
Regarding `C#C[C@@]1(O)[C@@H]2OP(=O)(OCCC(C)C(=O)OC3CCCC3)OC[C@H]2O[C@H]1n1ccc(=O)[nH]c1=O` (single isomer, unassigned) [Compound 8B1], the CC50 is over 50 µM.
Consider `C#C[C@]1(C)[C@@H]2O[P@@](=O)(OCC(CC(=O)OC(C)C)N(C)C(=O)OC(C)(C)C)OC[C@H]2O[C@H]1n1ccc(=O)[nH]c1=O` (stereo partly shown) [Compound 74A2], for which the CC50 was over 50 µM.
With `CC(C)OC(=O)[C@@H](C)CCOP1(=O)OC[C@H]2O[C@@H](n3cnc4c(N)ncnc43)[C@](C)(Cl)[C@@H]2O1` (single isomer, unassigned) [Compound 35B1], the CC50 is over 50 µM.
`CC(C)OC(=O)C(C)CCOP1(=O)OC[C@H]2O[C@@H](n3ccc(=O)[nH]c3=O)[C@](C)(N)[C@@H]2O1` (single isomer, unassigned) [Compound 10B1]: the CC50 was over 50 µM.
For the compound `C#C[C@@]1(O)[C@@H]2OP(=O)(OCCC(C)C(=O)OC(C)C)OC[C@H]2O[C@H]1n1ccc(=O)[nH]c1=O` (stereo partly shown) [Compound 7B], the cytotoxic concentration (CC50) was over 50 µM.
Take `CC(C)OC(=O)C(C)CCOP1(=O)OC[C@H]2O[C@@H](n3cnc4c(N)ncnc43)[C@](C)(Cl)[C@@H]2O1` (single isomer, unassigned) [Compound 35B]: the CC50 is over 50 µM.

In general, EC50 refers to the concentration at which the effect is half-maximal. Usually CC50 stands for the concentration that lowers cell viability or growth by half.
